Read-outs that look alike come from different tables or passages of the source. Residues, ends and D or L forms follow the SMILES beside them. *: point of attachment. Palmitoyl = CCCCCCCCCCCCCCCC(=O)*
Columns and labels:
[1] = tested on: pilocarpine-induced sweating, C57BL6/Rcc male mice; assay: Antiperspirant effect, chronic administration, pilocarpine-induced sweating mouse model; format: in vivo; conditions: during 4 weeks treatment, 100 μg/paw
Description: This example evaluated chronic effects of peptide of invention SEQ ID NO: 1 pamitoylated form, in an in vivo sweating model. This model was established using pilocarpine, a non-selective agonist of muscarinic receptors, in 11-weeks old C57BL6/Rcc male mice. Test compound was locally administered three times per week for 4 weeks (Treatment). Sweat was induced by intraplantar (i.pl) injection of pilocarpine (3 μg/paw) in the right hind paw (Sweating) once on weeks 1, 2 and 4 according to table H.
Test compound was injected i.pl. on the right hind paw (1, 10 and 100 μg), and vehicle was saline solution.
Sweating was monitored through amylase activity detection on skin surface using iodine/starch reaction. Dark sweating drops were quantified after 5 minutes induction counting number of drops per paw in each condition. Sample n=5-6 individuals per group. Data are expressed as mean #standard error of the mean (SEM). Raw data was normalized as percentage respect to non-injected stimulated individuals (control, 100%). Statistical analysis was one-way ANOVA followed by Dunnett's post-hoc multiple comparison test comparing each condition with the corresponding control group, ****p<0.0001 ***p<0.001 **p<0.01, *p<0.05

[2] = tested on: TRPV1-mediated excitability of sensory neurons (neonatal rat dorsal root ganglia); assay: In vitro functional assay for neuronal sensitization (microelectrode array, capsaicin pulses); format: cell-based, Wistar rats; conditions: for % Sensitization inhibition: incubated 1 hour, 100 - ratio P3/P1
Description: Isolated neonatal rat dorsal root ganglia from Wistar rats (3-5 days-old) were seeded microelectrode array chips in DMEM Glutamax, 10% FBS, 1% P/S supplemented with murine NGF. All experiments were performed after 48 h cell seeding.
Sensory neurons were sensitized by acute exposure to pro-inflammatory cocktail with bradykinin, histamine and ATP. TRPV1-mediated excitability was analyzed as stinging, burning and itching sensations are mainly driven by TRPV1. Repetitive application of TRPV1-agonist capsaicin (15 s-application 500 nM) allowed first activation (P1) followed by desensitization (second application). Desensitized cultures were sensitized with the cocktail to recover excitability, using external solution between the second (P2) and the third (P3) capsaicin pulse (8 min). To confirm cell viability 40 mM KCl was applied at the end. Test compound was incubated 1 hour before monitoring at 0.1, 1 and 10 µM. Test compound is the peptide having the following sequence (SEQ ID NO: 1): Palm-HYWRELQYR-NH2
Sensitization was calculated as ratio between P3 and P1 capsaicin pulse (ratio P3/P1), representing sensitized response induced by the pro-inflammatory cocktail. Inhibition percentage was calculated as 100-Sensitization. Data are expressed as mean±standard error of the mean (SEM), Statistical analysis was one-way ANOVA followed by Dunnett's post-hoc multiple comparison test comparing each condition with the corresponding sensitization control group, ****p<0.0001 ***p<0.001 **p<0.01, *p<0.05

[3] = tested on: pilocarpine-induced sweating, C57BL6/Rcc male mice; conditions: acute, at 10, 30 and 100 μg
Description: Test compound was injected intraplantar (i.pl.) on the right hind paw (10, 30 and 100 μg) 30 min before sweating stimulation. Vehicle was saline solution.
Sweating was monitored through amylase activity detection on skin surface using iodine/starch reaction. Dark sweating drops were quantified after 5 minutes induction counting number of drops per paw in each condition. Sample n=5-6 individuals per group. Data are expressed as mean±standard error of the mean (SEM). Raw data was normalized as percentage respect to non-injected stimulated individuals (Control, 100%) and saline-injected non-stimulated individuals (Vehicle, 0%). Statistical analysis was one-way ANOVA followed by Dunnett's post-hoc multiple comparison test comparing each condition with the corresponding control group, ****p<0.0001 ***p<0.001 **p<0.01, *p<0.05

[4] = tested on: acetylcholine release, human neuroblastoma cell line differentiated to cholinergic neuronal phenotype; assay: Inhibition of KCl-induced acetylcholine release in a neuroblastoma cell line (Amplex Red); format: cell-based; conditions: 50 mM KCl
Description: To determine the compound of the invention effects on acetylcholine release, a human neuroblastoma cell line (50.000 cells/well) was used. Cells were differentiated to cholinergic neuronal phenotype for 4 days. Then, cells were pre-incubated for 60 minutes with the compounds (between 0.1 and 100 μM) as acetyl- or palmitoyl-form and conjugated with trifluoroacetate (TFA) or acetate salt. Afterwards, acetylcholine release was induced by membrane depolarization evoked by 15 minutes incubation with 50 mM KCl. Acetylcholine level in supernatants was quantified by using Amplex® Red Acetylcholine Assay Kit (Thermofisher) following manufacturer's instructions. […] Fluorescence (Ex 530 nm/Em 590 nm) was measured in FluorStar equipment. Acetylcholine content was normalized to the total protein content using BCA assay (Pierce) following manufacturer's instructions. Fluorescence measurements were normalized to the maximum signal detected with KCl stimulation in vehicle treated cells. Vesicle exocytosis disruption by the compounds of the invention lead to a decrease of acetylcholine release (Table E).

## CCCCCCCCCCCCCCCC(=O)N[C@@H](Cc1c[nH]cn1)C(=O)N[C@@H](Cc1ccc(O)cc1)C(=O)N[C@@H](Cc1c[nH]c2ccccc12)C(=O)N[C@@H](CCCNC(=N)N)C(=O)N[C@@H](CCC(=O)O)C(=O)N[C@@H](CC(C)C)C(=O)N[C@@H](CCC(N)=O)C(=O)N[C@@H](Cc1ccc(O)cc1)C(=O)N[C@@H](CCCNC(=N)N)C(N)=O [SEQ ID NO: 1 palmitoyl, Palm-HYWRELQYR-NH2] (Palmitoyl-HYWRELQYR-NH2)
[1]
  effect on sweating (in words): significant sweating inhibition
[2]; 0.1 μM
  % Sensitization inhibition: 69.7%
[2]; 1 μM
  % Sensitization inhibition: 51.2%
[2]; 10 μM
  % Sensitization inhibition: 59.7%
[2]; at the three concentration (0.1, 1 and 10 µM)
  effect on sensitization process (in words): significantly inhibited sensitization process with similar efficacy
[3]
  effect on sweating (in words): significantly reduced sweating
[4]; Acetate salt, 0.1 μM
  % Ach release inhibition: 42.9%
[4]; Acetate salt, 1 μM
  % Ach release inhibition: 81.3%
[4]; Acetate salt, 10 μM
  % Ach release inhibition: 87.5%
[4]; TFA salt, 5 μM
  % Ach release inhibition: 7.9%
[4]; TFA salt, 10 μM
  % Ach release inhibition: 49.4%
[4]; TFA salt, 50 μM
  % Ach release inhibition: 75.9%
